From US10624895B2, “Methods of sensitizing a patient with glioma to a therapeutic agent by administering small hairpin RNA targeting PDZ-RHOGEF” (THE TRANSLATIONAL GENOMICS RESEARCH INSTITUTE, priority 2016, dated 2020)

How the values were obtained:
CNS-1 rat model = conditions: systemic PPF treatment; cited from earlier work
[1] = clinical trials for Alzheimer's disease and vascular dementia; cited from earlier work
T98G cells = test: EGF-stimulated transwell migration assay; format: cell-based, human; conditions: serum starved T98G, PPF one hour prior to EGF (10 ng/mL), 24 hours
Experimental: FIG. 33 depicts the impact of PPF treatment on EGF-stimulated glioma cell migration. Serum starved T98G cells were treated with PPF at various concentrations one hour prior to EGF addition (10 ng/mL). Cell migration was assessed using the transwell migration assay after 24 hours. *p<0.001; **p<0.01.
Thus, the capacity of TROY to stimulate glioma cell invasion and increase TMZ and IR resistance could rely on the formation of a TROY-EGFR signaling complex. This association could activate, or potentiate, shared signaling pathways survival pathways as well as activate distinct TROY signaling pathways that mediate TROY receptor specific functional activities. Therefore, therapeutic approaches targeting TROY and/or both receptors may yield increased therapeutic benefit.

TROY = test: Western blot of TROY expression after PPF treatment; format: cell-based, human
Experimental: FIG. 24A—a Western blot analysis of TROY expression in T98G cells. Cells were treated with PPF at indicated concentrations for 6 hrs, lysed, and cell lysates immunoblotted with anti-TROY antibody. Immunoblotting of α-Tubulin in cell lysates is included as a loading control. FIG. 24B—Western blot analysis of TROY expression in T98G, GBM43, and GBM10 cells. Cells were treated with PPF at indicated concentrations for 24 hrs, lysed, and cell lysates immunoblotted with anti-TROY and α-Tubulin antibodies. FIG. 24C—Western Blot analysis of TROY expression in GBM10 and GBM43 primary glioma cells. Cells were treated with 5 μM PPF, lysed at the indicated time-points, and the lysates immunoblotted with an anti-TROY antibody. Immunoblotting of β-Actin in cell lysates is included as a loading control. FIG. […]—Western Blot analysis of T98G, GBM10 and GBM43 glioma cells treated with 5 μM PPF for 24 hours. Lysates were immunoblotted with anti-TROY, anti-TNFR1, anti-EGFR, and β-Actin antibodies.
Referring now to FIGS. 24A, 24B, 24C, and 24D: The inventors investigated if PPF could be utilized pharmacologically to decrease TROY expression in GBM cells. The long-term established cell line T98G was first utilized to test the efficacy of PPF. Cells were treated with increasing concentration of PPF, 1 to 20 μM lysed, and TROY expression assessed by immunobloting. Briefly, monolayers of cells were washed in phosphate-buffered saline (PBS) containing 1 mM phenylmethylsulfonylfluoride and 1 mM sodium orthovanadate and then lysed in 2×SDS sample buffer containing protease and phosphatase inhibitors. Protein concentrations were determined using the BCA Assay (Pierce). Thirty micrograms of total protein was loaded per lane and separated by SDS-PAGE. After transfer, the nitrocellulose membrane (Invitrogen) was blocked with either 5% nonfat-milk or 5% BSA in TB ST before addition of primary antibodies and followed with peroxidase-conjugated secondary antibody (Promega). Protein bands were detected using SuperSignal® Chemiluminescent Substrate (Pierce) with a UVP BioSpectrum 500 Imaging System.

T98G and GBM43 cells = test: Clonogenic survival assay, PPF with TMZ or radiation; format: cell-based, human
Experimental: FIGS. 26A, 26B, and 26C depict that PPF sensitizes GBM cells to TMZ and radiotherapy. FIG. 26A—A clonogenic assay was used to assess T98G and GBM43 cells survival after TMZ and radiation treatment. Cells were pre-treated with 5 μM PPF for 24 hours, and then either treated with 250 μM TMZ for 24 hours or exposed to 2 Gy radiation. Graph depicts the surviving fraction in the treated cells compared to vehicle (VC) treated or non-treated (NT) cells, **p<0.01. FIG. 26B—T98G glioma cells were treated with vehicle, PPF (5 μM) TMZ (250 μM) and PPF in combination with TMZ. TMZ-induced apoptosis was assayed by immunoblot analysis of cell lysates with an antibody to cleaved PARP. Immunoblotting for α-Tubulin was included as a loading control. FIG. 26C—T98G, GBM10, and GBM43 cells were treated with PPF ([…], and then immunoblotted to assess the activation of AKT and NF-κB. Immunoblotting for β-Actin is included as a loading control.
Referring now to FIGS. 26A, 26B, and 26C: Knockdown of TROY expression with shRNA decreases TMZ resistance in GBM cells in vitro (See Reference 42). […] Following combination therapy, cells were trypsinized, counted, and plated in a 6-well culture dish at densities of 100, 250, and 500 cells per well in triplicate. Cells were incubated for 12 days then fixed, stained with 0.5% crystal violet solution, and counted manually by blinded observers. […]

## CCCn1cnc2c1c(=O)n(CCCCC(C)=O)c(=O)n2C [PPF, 3-methyl-1-(5-oxohexyl)-7-propyl-3,7-dihydro-1H-purine-2,6-dione]
CNS-1 rat model
  tumor growth: decreased tumor growth
[1]
  side effect profile: minimal side effect profile
T98G cells
  EGF-stimulated glioma cell migration: reduced EGF-stimulated glioma cell migration
TROY; GBM10 and GBM43 cells, 5 μM PPF, varying lengths of time
  TROY expression over time: decreased in a time-dependent manner
TROY; T98G cells, 1 μM PPF
  TROY expression: significant suppression
TROY; T98G cells, PPF 1 to 20 μM, 6 hrs
  TROY expression: decreased in concentration dependent manner
TROY; T98G, GBM10, GBM43 cells, 5 μM PPF, 24 hrs
  TROY expression: effective in lowering TROY expression
T98G and GBM43 cells; 5 μM PPF 24 hours then 250 μM TMZ 24 hours, compared to TMZ alone, T98G and GBM43
  surviving fraction: significantly decreased the surviving fraction
T98G and GBM43 cells; 5 μM PPF 24 hours then 2Gy radiation, compared to 2Gy radiation alone
  surviving fraction: significantly decreased the surviving fraction
